# According to patent US20260256790A1, “DEBIO-0123 IN COMBINATION WITH TEMOZOLOMIDE AND RADIOTHERAPY FOR USE IN TREATING GLIOMA” (Debiopharm International S.A., priority 2023, published 2026):
# Where “and” joins values, the source holds several entries; their conditions need not be identical. Equal entries are not always repeated. Where two headings read alike, the source gives them in different places.
# Assays:
# [1] = Plasma and brain concentrations (PK) in healthy mice after oral dosing; format: in vivo, Nu/Nu mice; conditions: for Kp at 72 h: brain/plasma
# Protocol: Healthy male Nu/Nu mice were treated orally with either (i) a single dose of 30 mg/kg Compound of formula (I) ([…], 3 mice per time-point), (ii) 30 mg/kg of Compound of formula (I) given once a day for four consecutive days (27 mice in total, 3 mice per time-point), (iii) 30 mg/kg of AZD-1775 (adavosertib, purchased from Combi-Blocks, San Diego, USA) given twice a day for three consecutive days and once on day four (27 mice in total, 3 mice per time-point), (iv) or 80 mg/kg of Zn-c3 (purchased from EOS Med Chem, Jina City, China) given once a day for four consecutive days (27 mice in total, 3 mice per time-point). The doses used for each compound have previously been reported as active dose levels. Compound of formula (I) was formulated as a suspension in 0.5% methylcellulose with 1% Tween 80 and administered at a concentration of 3.0 mg/mL. […] The dosing volume of all formulations was 10 mL/kg. At designated time-points the mice were euthanized by carbon dioxide inhalation, blood samples were collected by cardiac puncture into K2EDTA containing tubes. The tubes were inverted several times, placed on ice and centrifuged within 30 min of collection (4° C. for 5 min at 6000 rpm) to obtain plasma. The plasma samples were snap frozen in dry ice and stored at −80° C. until analysis. The brain was collected, weighed and snap frozen in dry ice until further analysis. To obtain brain homogenates, firstly water was added to each brain (brain weight:water volume=1:4) then the brain was homogenized with a H-speed dispersator (time procedure: homogenizing for 10 s and interval of 10 s per time, total 3-5 times; cleaning procedure for dispersator: Water-Methanol-Ethanol-Water, 10 s each). The brain homogenate samples were transferred to individual tubes and stored at −80° C. prior to analysis. The mouse plasma and brain samples were analysed as follows. For each analytical batch of plasma and brain samples, the standard and quality control (QC) samples were freshly prepared in blank male Nu/Nu mouse plasma (with K2EDTA anticoagulant) and brain homogenate. To an aliquot of each standard, QC, control blank and study samples, internal standard (^13CD6-Compound of formula (I) for Compound of formula (I), terfenadine for AZD-1775 and Zn-c3) in methanol/acetonitrile (1:1, v/v) was added. The samples were mixed for 1 minute and centrifuged at 4000 rpm at 4° C. for 15 minutes. Supernatants were transferred and diluted in MeOH/water (1:1, v/v, with 0.1% FA) prior to LC-MS/MS injection. Chromatographic separation was achieved on an Shimadzu LC-20AD using a Kinetex 2.6μ C18 100A column (50 mm*3.00 mm) for Compound of formula (I) and AZD-1775 samples and a ACE 5 C4 column (50 mm*2.1 mm) for Zn-c3 samples with gradient elution using the following conditions: flow rate: 0.7 mL/min; run time: 3.0 min; mobile phase: A: 5 mM NH4OAc (0.1% FA), B: Acetonitrile (0.1% FA). Detection was accomplished with an AB Sciex 5500 utilizing electrospray MS/MS in positive ion multiple reaction monitoring mode (MRM). The MRM channels were 511.29/98 for Compound of formula (I), 501.47/442.20 for AZD-1775 and 527.36/468.10 for Zn-c3. The MRM channels of internal standard were 518.17/102.10 (^13CD6-Compound of formula (I)) for Compound of formula (I), 472.40/436.40 (terfenadine) for AZD-1775 and Zn-c3. The measured plasma and brain concentrations at each time-point, the nominal sample collection time, and intended dosages were used for pharmacokinetic analysis. The PK parameters of all study compounds were determined by non-compartmental analysis using WinNonlin Version 8.0 (Pharsight).
# [2] = Drug concentration in monkey brain and plasma after daily oral administration for 91 days; format: in vivo, cynomolgus monkeys; conditions: 10 mg/kg oral once a day for 91 days
# Protocol: Compound of formula (I) was orally given to 3 female cynomolgus monkeys by gavage once a day for 91 days. The volume of administration was 5 mL/kg, and the vehicle was an aqueous solution of 0.5% (w/v) methylcellulose (cps 400) and 1% (w/v) Tween 80. The Compound of formula (I) dose was 10 mg/kg; this dose level was assessed in this study to be the […] no adverse effect level (NOAEL) based on general toxicology evaluation. The animals were necropsied 24 hours after the last dose after an overnight period without food. A sample from brain tissue (left forebrain) was collected from each animal, snap frozen in liquid nitrogen. and stored frozen at <−50° C. Blood samples were taken from the femoral vein into tubes containing K2EDTA, fully inverted approximately 10 times, and placed on crushed wet ice until centrifugation at 2300 g for 10 minutes at approximately 4° C. The resultant plasma was separated, transferred into polypropylene tubes, and frozen at <−50° C. Tissue and plasma samples were transported frozen on dry ice to the respective sites of analysis.
# The monkey plasma samples were analyzed for their contents in Compound of formula (I) and N^32-desmethyl-Compound of formula (I) as follows. The plasma samples were fortified in human K2-EDTA plasma (1:9 monkey:human volume ratio) prior to extraction. All solution preparations and dilutions were conducted under sodium vapor light and in “low-binding” quality polypropylene tubes and deep-well plates. The analytes and internal standards (^13CD6-Compound of formula (I) and D7-N^32-desmethyl-Compound of formula (I)) were extracted by protein precipitation with 5M aqueous urea (40 μL for 50 μL plasma), and then analyzed by LC-MS/MS. Chromatographic separation was achieved on an Synergi Polar-RP, 80A, 4 μm 75×2.00 mm column (Phenomenex) with gradient elution using a mixture of 0.1% formic acid in water as eluent A and 0.1% formic acid in acetonitrile as eluent B (5% B from 0 to 0.50 min, 42% B at 4.5 min, 95% B from 4.60 min to 5.50 min, 5% B at 5.60 min, 100% B at 5.70 min, 5% B at 6.40 min, 100% B at 6.50 min, 5% B at 7.00 min; 800 μl/min, 70° C.). Detection was accomplished with a AB Sciex 6500+ mass spectrometer utilizing electrospray MS/MS in positive ion multiple reaction monitoring mode (MRM). The lower limits of quantification for Compound of formula (I) and N^32-desmethyl-Compound of formula (I) were 5.00 ng/mL and 2.50 ng/mL, respectively.
# The monkey brain tissue samples were analyzed for their contents in Compound of formula (I) and N^32-desmethyl-Compound of formula (I) as follows. Tissue samples were homogenized in human plasma (1 mg tissue for 10 μL plasma) at +4° C. using a Precelly Evolution system. The analytes (Compound of formula (I) and N^32-desmethyl-Compound of formula (I)) were extracted by protein precipitation with methanol/acetonitrile (9:1, v:v) containing the internal standards (^13CD6-Compound of formula (I) and D7-N^32-desmethyl-Compound of formula (I)) and then analyzed by UHPLC-MS/MS. Chromatographic separation was achieved on a HSS T3 1.8 μm, 2.1×100 mme column (Waters) with gradient elution using a mixture of 0.1% formic acid in water as eluent A, and 0.1% formic acid in acetonitrile as eluent B (20% B from 0 to 0.50 min, 90% B from 1.80 min to 2.30 min, 20% B at 2.60 min; 0.6 mL/min, room temperature). Detection was accomplished with Xevo TQ-S mass spectrometer (Waters) utilizing electrospray MS/MS in positive ion multiple reaction monitoring mode (MRM). The lower limits of quantification for Compound of formula (I) and N^32-desmethyl-Compound of formula (I) were 55.00 ng/g tissue and 22.00 ng/g tissue, respectively.
# [3] = CSF and matching plasma concentrations in glioma patients (clinical trial Arms A and B); format: in vivo, human
# Protocol: In the clinical trial described in Example 9, cerebrospinal fluid (CSF) stabilized with formic acid 0.5% and matching plasma samples collected on K2 EDTA were drawn from 3 patients of Arm A on day 11 of cycle 1 (i.e. 2 patients at 150 mg and 1 patient at 200 mg of Study drug) and 1 patient of Arm B on Week 3 day 1 (i.e. Day 15 after daily doses of Study drug at 90 mg).
# Study drug (parent, active moiety) and its active metabolite N^32-desmethyl-Study drug were measured using LC-MS/MS methods. Results were provided in ng per mL of plasma or CSF, and then converted to nmol/L using the molecular weights of the Study drug (511.45 g/mol) and N^32-desmethyl-Study drug (497.42 g/mol).
# (§1) Thus, the unbound (or free fraction) of the Study Drug and the N^32-desmethyl-Study drug are calculated.
# In CSF, the total protein concentration varies between 0.2% and 0.5% of the total protein concentration of blood (H. Reiber, Clinica Chimica Acta, 2001; Schilde L M et al., PLoS ONE, 2018), therefore the concentration measured in CSF essentially corresponds to the free fraction of the compounds.
# For each of the 4 patients, the ratio CSF/plasma of a given compound (Study drug parent or metabolite) was calculated using the CSF concentration of said compound (in nmol/L) and the unbound or free fraction of said compound in plasma (in nmol/L).
# plasma proteins = assay: Binding to plasma proteins; format: in vitro ADME
# Protocol: as §1
# [4] = 30 mg/kg, bid for 3 days and once on day 4, oral, day 4
# [5] = Arm A, 150 mg, day 11 of cycle 1, listed as N^32-desmethyl-Study drug
# [6] = Arm A, 200 mg, day 11 of cycle 1
# [7] = Arm B, 90 mg daily, Week 3 day 1 (Day 15)
smiles,measurement,setting,value
"C=CCn1c(=O)c2cnc(Nc3ccc(N4CCN(C)CC4)cc3)nc2n1-c1cccc(C(C)(C)O)n1 [AZD-1775, adavosertib, reference compound]","AUCInf, brain",[1]; [4],99.7 ng·h/g
same,"AUCLast, brain",[1]; [4],94.5 ng·h/g
same,"Cmax, brain",[1]; [4],53.9 ng/g
same,Kp at 72 h,"[1]; male, Nu/Nu, mouse, po, 30 mg/kg, bid for 3 days and once on day 4, oral, day 4, read-out: Brain to plasma ratio based on AUCInf",0.051
same,Kp at 72 h,"[1]; male, Nu/Nu, mouse, po, 30 mg/kg, bid for 3 days and once on day 4, oral, day 4, read-out: Brain to plasma ratio based on AUCLast",0.048
same,Kp at 72 h,"[1]; male, Nu/Nu, mouse, po, 30 mg/kg, bid for 3 days and once on day 4, oral, day 4, read-out: Brain to plasma ratio based on Cmax",0.043
same,Cmax,"[1]; male, Nu/Nu, mouse, plasma, po, 30 mg/kg, bid for 3 days and once on day 4, oral, day 4",1260 ng/mL
same,AUC(0-inf),"[1]; male, Nu/Nu, mouse, plasma, po, 30 mg/kg, bid for 3 days and once on day 4, oral, day 4, read-out: AUCInf, plasma",1960 ng·h/mL
same,AUC(0-t),"[1]; male, Nu/Nu, mouse, plasma, po, 30 mg/kg, bid for 3 days and once on day 4, oral, day 4, read-out: AUCLast, plasma",1950 ng·h/mL
Cc1cc(Nc2ncc3c(n2)N(C)CN(c2c(Cl)cccc2Cl)C3=O)ccc1C1CCNCC1 [N^32-Desmethyl-Compound of formula (I)],"Mean brain:plasma ratio (±SD), at 24 h post last dose (n = 3)",[2],0.73 ± 0.21
same,"Brain:plasma concentration ratio, at 24 h post last dose",[2]; individual animals,0.49 and 0.81 and 0.88
same,Plasma concentration at 24 h post last dose,[2]; individual animals,531 ng/mL and 233 ng/mL and 365 ng/mL
same,Brain concentration at 24 h post last dose,"[2]; left forebrain, individual animals",258 ng/g tissue and 188 ng/g tissue and 323 ng/g tissue
same,CSF/plasma ratio,"[3]; 4 patients, Arms A and B",about 5%
same,CSF concentration,[3]; [5],0.23 nmol/L and 0.26 nmol/L
same,CSF to “unbound plasma” ratio,[3]; [5],0.06 and 0.05
same,Raw data concentration in CSF,[3]; [5],0.114 ng/mL and 0.128 ng/mL
same,Raw data concentration in plasma,[3]; [5],17.7 ng/mL and 15.6 ng/mL
same,Unbound plasma concentration,[3]; [5],4.59 nM and 4.05 nM
same,CSF concentration,[3]; [6],0.31 nmol/L
same,CSF to “unbound plasma” ratio,[3]; [6],0.05
same,Raw data concentration in CSF,[3]; [6],0.154 ng/mL
same,Raw data concentration in plasma,[3]; [6],23.2 ng/mL
same,Unbound plasma concentration,[3]; [6],6.02 nM
same,CSF concentration,[3]; [7],0.61 nmol/L
same,CSF to “unbound plasma” ratio,[3]; [7],0.05
same,Raw data concentration in CSF,[3]; [7],0.302 ng/mL
same,Raw data concentration in plasma,[3]; [7],42.8 ng/mL
same,Unbound plasma concentration,[3]; [7],11.10 nM
same,Active metabolite in plasma as share of Study drug parent,[3]; patient plasma,about 10%
same,Bound to plasma proteins,plasma proteins,87.1%
"C=CCn1c(=O)c2cnc(Nc3ccc(N4CCN(C)CC4)cc3)nc2n1-c1ccc2c(n1)[C@@](O)(CC)CC2 [Zn-c3, reference compound]","AUCInf, brain","[1]; mouse, in vivo, po, 80 mg/kg",878 ng·h/g
same,"AUCInf, plasma","[1]; mouse, in vivo, po, 80 mg/kg",14180 ng·h/mL
same,"AUCLast, brain","[1]; mouse, in vivo, po, 80 mg/kg",396 ng·h/g
same,"AUCLast, plasma","[1]; mouse, in vivo, po, 80 mg/kg",14179 ng·h/mL
same,Brain to plasma ratio based on AUCInf,"[1]; mouse, in vivo, po, 80 mg/kg",0.062
same,Brain to plasma ratio based on AUCLast,"[1]; mouse, in vivo, po, 80 mg/kg",0.028
same,Brain to plasma ratio based on Cmax,"[1]; mouse, in vivo, po, 80 mg/kg",0.035
same,"Cmax, brain","[1]; mouse, in vivo, po, 80 mg/kg",97.2 ng/g
same,"Cmax, plasma","[1]; mouse, in vivo, po, 80 mg/kg",2773 ng/mL
